According to paper PMC9457533, “Study on Metronidazole Acid-Base Behavior and Speciation with Ca^2+ for Potential Applications in Natural Waters” (Molecules, 2022):
Where “and” joins values, the source holds several entries; their conditions need not be identical. Equal values may be shown once.

Key:
Assay type in all cases: physicochemical
[1] = Dependence of protonation constants on temperature (van't Hoff equation), thermodynamic parameters; conditions: t = 298.15 K, I = 0.15 mol L^-1 NaCl
Experimental: The protonation and formation constants values acquired at the three different temperatures of 15, 25, and 37 °C, listed in Table 1, were used to study their dependence on temperature, as already shown for several systems. The data obtained by the potentiometric measurements were analyzed using the following van’t Hoff equation:logβT = logβθ + ΔH^0(1/θ − 1/T) R ln 10(6) where logβT is the stability constant at a certain temperature (expressed in kelvin), while logβθ is the stability constant at t = 298.15 K, and R is the universal gas constant expressed as 8.314 J K^−1 mol^−1. Using the equation just reported, it was possible to calculate the protonation and formation enthalpies change values, together with Gibbs free energy and entropy changes.
(§1) The protonation constant of MNZ (L), formation constant values of Ca^2+(M)-MNZ (L), and titration parameters (analytical concentration of the reagents, standard potential E^0, junction potential) were determined by using BSTAC and STACO programs. LIANA program has provided the parameters characterizing the dependence of the protonation and formation constant values on the temperature and ionic strength. More details on software are present in ref. [59]. ^1H NMR data were processed by HypNMR software, which allows for calculating protonation and formation constant values and the individual chemical shift of species through the observed signals and assuming fast mutual exchange in the NMR time scale. UV-Vis data are processed by the HypSpec program, which allows refining of the protonation and formation constant as well as the molar absorption coefficient values (ε) of the species. The speciation diagrams and the formation percentage of the species are determined by the Hyss program.

[2] = 1H NMR titrations: protonation constants of MNZ; conditions: t = 25 °C, I = 0.15 mol L^-1
Experimental: The acid-base behavior of the ligand was also investigated by ^1H NMR. Various spectroscopic titrations were therefore carried out on solutions containing L to determine the values of the chemical shifts, and to refine the protonation constant values. The ^1H NMR spectra, shown in Figure 5 at various pH values and t = 25 °C, show four distinct signals: a singlet associated with CH3 protons, two triplets related to the protons of the two CH2, indicated as CH2a and CH2b, and a singlet of the CH proton present in the imidazole ring. An upfield of 0.3 ppm of the CH chemical shift can be observed as a consequence of the deprotonation of the imidazole group for the pH increase. A similar behavior can be observed for the CH3 in which the chemical shift is 0.2 ppm. […] Furthermore, M-L solutions were analyzed by ^1H NMR at t = 25 °C and I = 0.15 mol L^−1, using a procedure already employed for other systems. The experimental spectra were reported in the Supplementary Materials.
NMR measurements were performed by Varian 500 NMR spectrometer. The ^1H NMR spectra were recorded using 90% H2O and 10% D2O as solvent and the chemical shifts were referred to the 1,4-dioxane signal (δCHdioxane = 3.7 ppm). […] Ca^2+-L spectra were recorded at the same conditions of ionic strength, temperature, and pH range of the free ligand. […]

[3] = Potentiometric titrations: formation constant of Ca^2+-MNZ species (CaLH) in NaCl; conditions: for logK^CaLH: Ca + LH = CaLH
Experimental: To investigate the interaction between MNZ and Ca^2+, various potentiometric titrations were also performed on solutions containing different metal/ligand ratios. The reactions related to formation constants are indicated below, where the charges are omitted for simplicity and MNZ was indicated as L:Ca + L + rH = MLHr β^MLH^r(3) Ca + LHr = MLHr K^MLH^r(4)
Hydrolysis constant values of Ca^2+ species at various temperatures and ionic strength in NaCl, taken into account in the calculations relating to the M-L system, are reported in Supplementary Material. The most accurate speciation model is chosen by evaluating several factors, which are the statistical parameters standard and mean deviation, the formation percentages of the considered species, and the simplicity of the model. Based on potentiometric results, several computational tests were carried out considering different speciation models.
The potentiometric titrations were employed by Metrohm-Titrando 809 automated potentiometer with a combined glass electrode ORION, type Ross 8102SC and a Metrohm Dosino 800 automatic dispenser. The titrations were performed in cells with a capacity of 25 mL, characterized by a double wall inside which thermostated water circulates. The cells were connected to a thermostat model D1-G Haake. During the measurements, pure N2 was bubbled to avoid CO2 and O2 in solution. The system is interfaced to a PC through the Metrohm TIAMO 2.0 software, which automatically acquires the mL/mV pairs. It can control several parameters, such as e.m.f. stability, titrant delivery, and data acquisition. Estimated accuracy of this apparatus is ±0.15 mV and ±0.002 mL for e.m.f. and for readings of titrant volume. The acid-base titrations were carried out first on 25 mL solutions containing L, HCl, and NaCl as supporting electrolytes at different temperatures and ionic strength conditions. […] The solutions were titrated using standard NaOH solution. A calibration was associated with each measurement by titration with NaOH of a solution containing HCl, NaCl, and H2O, in order to calculate the standard electrode potential (E^0) and the pKw values.
as §1

TΔS ([1]; L + H = LH): 14.1 kcal/mol
ΔG ([1]; L + H = LH): -15.9 kcal/mol
ΔH ([1]; L + H = LH): -8 kJ mol^-1 and −8(7) kJ mol^-1
TΔS ([1]; LH + H = LH2): 0.24 kcal/mol
ΔG ([1]; LH + H = LH2): -3.35 kcal/mol
ΔH ([1]; LH + H = LH2): -13 kJ mol^-1 and −13(3) kJ mol^-1
logβ H-NMR ([2]; L + 2H = LH2): 14.13(1)
logβ H-NMR ([2]; L + H = LH): 11.81(1) ^1
logβ^CaLH ([3]; Ca + L + H = CaLH, t = 15 °C, I = 0.16 mol L^-1 NaCl): 14.06(11) ^4, 5
logβ average value ([3]; Ca + L + H = CaLH, t = 25 °C, I = 0.15 mol L^-1, average of UV, potentiometry): 14.16(7)
logβ^CaLH ([3]; Ca + L + H = CaLH, t = 25 °C, I = 0.5 mol L^-1 NaCl): 15.00(2)
logβ^CaLH ([3]; Ca + L + H = CaLH, t = 25 °C, I = 0.98 mol L^-1 NaCl): 14.60(5) ^6
logβ^CaLH ([3]; Ca + L + H = CaLH, t = 37 °C, I = 0.15 mol L^-1 NaCl): 13.56(8) ^7
logK^CaLH ([3]; t = 15 °C, I = 0.16 mol L^-1 NaCl): 2.06 ^5
logK^CaLH ([3]; t = 25 °C, I = 0.16 mol L^-1 NaCl (text: 0.15)): 2.49 ^5
logK^CaLH ([3]; t = 25 °C, I = 0.5 mol L^-1 NaCl): 2.49
logK^CaLH ([3]; t = 25 °C, I = 0.98 mol L^-1 NaCl): 2.38 ^6
logK^CaLH ([3]; t = 37 °C, I = 0.15 mol L^-1 NaCl): 1.68 and 1.68 ^7
Compound: Cc1ncc([N+](=O)[O-])n1CCO [MNZ, 2-Methyl-5-nitroimidazole-1-ethanol]
